Results taken from patent US20050208496A1, “Methods of testing for bronchial asthma or chronic obstructive pulmonary disease” (Genox Research, Inc., priority 2002, published 2005).

Test system: respiratory epithelial cells

Substance: IL-13: human IL-13 (Peprotech, Inc.) added to the medium at 50 ng/mL to stimulate respiratory epithelial cells
- AI948584 48086_at expression change (lot 1, Day 7, AI): −3.9
- AI971023 48539_at expression change (lot 1, Day 7, AI): −2.1
- AI984780 (52384_s_at) expression change (lot 1, Day 7, AI): −2.5
- AL040936 (45684_at) expression change (lot 1, Day 7, AI): −2.3
- AQP5 32909_at expression change (lot 1, Day 7, AI): −3.4
- ARHGEF4 36524_at expression change (lot 1, Day 7, AI): −4.1
- ARHV (82231_at) expression change (lot 1, Day 7, AI): −2.7
- AW022213 (79520_at) expression change (lot 1, Day 7, AI): −2.6
- AW025596 52634_at expression change (lot 1, Day 7, AI): −2.5
- AW025596 52637_g_at expression change (lot 1, Day 7, AI): −5.7
- B4GALT5 56373_at expression change (lot 1, Day 7, AI): −2.2
- BARX2 35425_at expression change (lot 1, Day 7, AI): −2.4
- BPGM (51261_at) expression change (lot 1, Day 7, AI): −3.7
- CBLB 514_at expression change (lot 1, Day 7, AI): −4.2
- CBLB 35632_at expression change (lot 1, Day 7, AI): −2
- COL12A1 (44730_at) expression change (lot 1, Day 7, AI): −3.5
- CRABP-II 1057_at expression change (lot 1, Day 7, AI): −5.4
- CRABP-II 41783_at expression change (lot 1, Day 7, AI): −8.8
- Clorf28 50075_at expression change (lot 1, Day 7, AI): −3.5
- DHCR24 (74557_s_at) expression change (lot 1, Day 7, AI): −2
- DKFZp434K1210 44682_at expression change (lot 1, Day 7, AI): −2.1
- DSC3 (79615_at) expression change (lot 1, Day 7, AI): −2.4
- DSC3a, b 47119_at expression change (lot 1, Day 7, AI): −2.8
- DSC3a, b 79615_at expression change (lot 1, Day 7, AI): −2.4
- EVPK 39569_at expression change (lot 1, Day 7, AI): −2
- FKBP5 (46271_at) expression change (lot 1, Day 7, AI): −2.3
- FLJ10298 (62490_f_at) expression change (lot 1, Day 7, AI): −4.5
- FLJ10718 52072_at expression change (lot 1, Day 7, AI): −3.8
- FLJ12541 43546_at expression change (lot 1, Day 7, AI): −10.1
- FLJ20048 (49196_at) expression change (lot 1, Day 7, AI): −4.3
- FLJ20500 43853_at expression change (lot 1, Day 7, AI): −2.1
- FLJ23309 45563_f_at expression change (lot 1, Day 7, AI): −2
- FLJ23516 47534_at expression change (lot 1, Day 7, AI): −4.1
- GABRP 40339_at expression change (lot 1, Day 7, AI): −2.1
- GAS41 (64121_at) expression change (lot 1, Day 7, AI): −2
- GJA1 32531_at expression change (lot 1, Day 7, AI): −8.8
- GK (61873_at) expression change (lot 1, Day 7, AI): −2.7
- GPD2 42720_at expression change (lot 1, Day 7, AI): −2
- GSTA3 58023 at expression change (lot 1, Day 7, AI): −2.7
- HEY1 44783_s_at expression change (lot 1, Day 7, AI): −4.5
- HIN-1 (46200_at) expression change (lot 1, Day 7, AI): −32.7
- HSPC195 44705_at expression change (lot 1, Day 7, AI): −2.4
- ID1 36619_r_at expression change (lot 1, Day 7, AI): −8
- IL20RA 42969_at expression change (lot 1, Day 7, AI): −2.1
- IVL 36355_at expression change (lot 1, Day 7, AI): −3.7
- KCNMA1 (47575_g_at) expression change (lot 1, Day 7, AI): −5.2
- KCNMA1 (53796_at) expression change (lot 1, Day 7, AI): −2.8
- KIAA0878 (48793_at) expression change (lot 1, Day 7, AI): −2.8
- KIAA1376 (62972_at) expression change (lot 1, Day 7, AI): −2.2
- KIAA1376 (64047_at) expression change (lot 1, Day 7, AI): −4
- KIAA1547 58531_g_at expression change (lot 1, Day 7, AI): −2.6
- KLF7 (42769_at) expression change (lot 1, Day 7, AI): −2.3
- KRT6B (62998_at) expression change (lot 1, Day 7, AI): −5.6
- KRT15 37582_at expression change (lot 1, Day 7, AI): −2.6
- LCE 45605_at expression change (lot 1, Day 7, AI): −2.6
- LMO4 1452_at expression change (lot 1, Day 7, AI): −2
- LOC51297 (55440_at) expression change (lot 1, Day 7, AI): −60.6
- LOC51297 (55442_g_at) expression change (lot 1, Day 7, AI): −181.3
- LOC51316 (63342_at) expression change (lot 1, Day 7, AI): −2.4
- LOC55893 (64071_at) expression change (lot 1, Day 7, AI): −3.5
- LOC129642 (42065_at) expression change (lot 1, Day 7, AI): −5.4
- LOC129642 (58288_at) expression change (lot 1, Day 7, AI): −7.2
- LOC131177 (43849_s_at) expression change (lot 1, Day 7, AI): −2.6
- LOC131177 (45394_s_at) expression change (lot 1, Day 7, AI): −2.3
- MGC12536 46924_at expression change (lot 1, Day 7, AI): −4.9
- MGC13102 (54791_at) expression change (lot 1, Day 7, AI): −3.9
- MGC14128 55924_at expression change (lot 1, Day 7, AI): −5.1
- MGC14128 (51669_r_at) expression change (lot 1, Day 7, AI): −4.4
- MGC14597 (46030_at) expression change (lot 1, Day 7, AI): −3.7
- MGC16207 43412_s_at expression change (lot 1, Day 7, AI): −2.6
- MGC16207 (65876_at) expression change (lot 1, Day 7, AI): −4
- N52554 47432_at expression change (lot 1, Day 7, AI): −2.7
- N71183 52473_at expression change (lot 1, Day 7, AI): −2.3
- PSCA (63958_at) expression change (lot 1, Day 7, AI): −6.5
- RAC2 32737_at expression change (lot 1, Day 7, AI): −4.9
- RIN1 1778_g_at expression change (lot 1, Day 7, AI): −2.1
- SCNN1B 39682_at expression change (lot 1, Day 7, AI): −7.6
- SEMA4B (46709_at) expression change (lot 1, Day 7, AI): −3.6
- SERPINA3 (75248_at) expression change (lot 1, Day 7, AI): −24.4
- SLC11A3 (45826_at) expression change (lot 1, Day 7, AI): −3.3
- SLC34A2 (48048_at) expression change (lot 1, Day 7, AI): −2
- SPON2 52576_s_at expression change (lot 1, Day 7, AI): −3
- SPRR1B 37160_at expression change (lot 1, Day 7, AI): −2.1
- STEAP 40297_at expression change (lot 1, Day 7, AI): −3.1
- T52027 (63150_at) expression change (lot 1, Day 7, AI): −2.9
- TCF8 33439_at expression change (lot 1, Day 7, AI): −2.1
- TGFBI (68339_at) expression change (lot 1, Day 7, AI): −4.2
- TNFAIP2 (74633_at) expression change (lot 1, Day 7, AI): −4.6
- TNNT1 36113_s_at expression change (lot 1, Day 7, AI): −5.5
- TPM1 36790_at expression change (lot 1, Day 7, AI): −3.3
- TPM1 36791_g_at expression change (lot 1, Day 7, AI): −3.2
- TPM1 36792_at expression change (lot 1, Day 7, AI): −3.9
- UCP2 37591_at expression change (lot 1, Day 7, AI): −12.7
- UGB 39220_at expression change (lot 1, Day 7, AI): −28.1
- VEGFC 1934_s_at expression change (lot 1, Day 7, AI): −2.4
- VIM 34091_s_at expression change (lot 1, Day 7, AI): −9.4
- W55956 46700_at expression change (lot 1, Day 7, AI): −2.3
- W72331 49486 at expression change (lot 1, Day 7, AI): −3.4
- AA167714 (54897_at) expression fold change (lot 1, Day 7, AI method): 3.9 fold
- AA420479 (52539_at) expression fold change (lot 1, Day 7, AI method): 4.1 fold
- AA582926 (52307_at) expression fold change (lot 1, Day 7, AI method): 3.8 fold
- AA604375 (44127_at) expression fold change (lot 1, Day 7, AI method): 2.5 fold
- ACP5 (677_s_at) expression, fold change upon IL-13 stimulation (lot 1, Day 7, AI method): 2.5 fold
- ADAM8 (40712_at) expression, fold change upon IL-13 stimulation (lot 1, Day 7, AI method): 5.1 fold
- ADAM28 (35479_at) expression, fold change upon IL-13 stimulation (lot 1, Day 7, AI method): 5 fold
- AI565105 (54886_at) expression fold change (lot 1, Day 7, AI method): 2.4 fold
- AI659927 (54033_at) expression fold change (lot 1, Day 7, AI method): 4.2 fold
